pEC50: −log10 of the molar value. Like-named read-outs stand apart in the source and are kept apart here.

Data set [1] deals with larvae of the barnacle Amphibalanus amphitrite. The data set can be described thus: Antifouling assay against barnacle larvae. Conditions: for toxicity to larvae: at 10 µg/mL. Format: in vivo. On the procedure:
(§1) An antifouling assay against larvae of the barnacle Amphibalanus amphitrite was conducted according to the previous literature. The antifouling assay against diatoms Nitzschia sp. and Cylindrotheca closterium was conducted as follows. The diatoms were maintained in test tubes under 16 h light and 8 h dark cycle conditions at 25 °C in modified Jorgensen’s medium. Pure compounds were applied to a sample zone (16 mm in diameter) of cellulose TLC aluminum sheet (58 × 58 mm), and then each treated sheet was placed in Petri dish (15 × 90 mm in diameter). After that, 25-mL aliquots of modified Jorgensen’s medium were introduced into Petri dishes with treated sheets, and inoculated with 1 mL of cultivated diatom suspension in equivalent cell densities. Petri dishes were sealed with Parafilm to ensure a closed system, and were incubated under the same conditions. Cell growth was estimated daily, and the adhesive condition was evaluated and compared to those of the control after seven days of incubation.

Data set [2] is described as follows: Antifouling assay against barnacle larvae. The data set is classed as in vivo. Conditions: Amphibalanus amphitrite (barnacle), in vivo, barnacle larvae. As to the method:
as §1

The test system of data set [3] is Nitzschia sp. Briefly: Antifouling (anti-diatom) assay on treated cellulose TLC sheet. The data set is classed as cell-based. The following applies: at 5–10 µg/cm^2, seven days of incubation. As to the method:
as §1

Data set [4] concerns Cylindrotheca closterium. The data set is described as above. The data set is classed as cell-based. The following applies: at 5–10 µg/cm^2, seven days of incubation. As to the method:
as §1

Where [5] appears, read: Amphibalanus amphitrite, barnacle larvae, Table 4, read-out: EC50.
The mark [6] stands for this setting: Amphibalanus amphitrite, barnacle larvae, values in text, read-out: antifouling activity EC50.
The mark [7] stands for this setting: barnacle larvae, values in text.
Setting [8] is: values in text, read-out: toxicity LC50.
[9] abbreviates: Amphibalanus amphitrite, barnacle larvae, Table 4, dash entries, read-out: EC50.
Setting [10] is: Table 4, dash entries, read-out: LC50.

Take `CC[C@@H]1[C@@H]2[C@H]3OC(C=C=CBr)C[C@H]3O[C@]2(O)[C@@H](Br)C[C@H]1Br` (relative stereo) [Compound 3, hachijojimallene A]: the negative logarithm of the EC50 (pEC50) in data set [1] (setting [5]) was 6.51. Besides, the EC50 in data set [1] (setting [6]) lay within 0.15 to 0.23 mg/L. The “antifouling activity EC50” value in data set [1] (setting [7]) came to 0.15 mg/L. The LC50 was 20 µM in data set [2] (Table 4, read-out: LC50) and 9.8 mg/L in data set [2] (setting [8]).

`CC[C@@H]1[C@@H]2[C@H]3OC(C=C=CBr)C[C@H]3O[C@@]23O[C@@H]1C[C@@H]3Br` (relative stereo) [Compound 4, hachijojimallene B]: the pEC50 in data set [1] (setting [5]) is 6.12. For the same molecule, the EC50 in data set [1] (setting [6]) worked out at 0.31 mg/L. Besides, the LC50 in data set [2] (Table 4, read-out: LC50) was 17 µM; in data set [2] (setting [8]), 6.8 mg/L.

As for `CC(C)=CCCC(C)C1(O)CCC2(C)C(Br)CCC(C)(O)C2C1` (centres unmarked) [Compound 1, omaezol], the pEC50 in data set [1] (setting [5]) was 6.23. Further, in data set [1] (setting [6]), the EC50 was 0.15 to 0.23 mg/L. Also, in data set [1] (setting [7]), the “antifouling activity EC50” value worked out at 0.23 mg/L. In addition, the LC50 was 9.6 µM in data set [2] (Table 4, read-out: LC50) and 3.7 mg/L in data set [2] (setting [8]).

As for `CC(C)(Cl)C(Br)CCC(C)(O)C1CCC(C)(C(O)CCC2OC3(C(C)(O)CCC(Br)C(C)(C)Cl)CCC2(C)O3)O1` (centres unmarked) [Compound 2, intricatriol], the EC50 in data set [1] (setting [9]) and in data set [1] (setting [6]) was above 10 mg/L in each case. Moreover, the LC50 in data set [2] (setting [10]) is above 10 mg/L.

In the case of `Cc1ccc2c(c1)O[C@@]1(C=O)[C@@H](C)CC[C@@]21C` [Compound 5, debromoaplysinal], in data set [1] (setting [5]), the pEC50 is 5.37. The EC50 in data set [1] (setting [6]) worked out at 1 mg/L. Also, the toxicity to larvae entry in data set [1] was “did not kill any larvae”. Further, the LC50 in data set [2] (setting [10]) is above 10 mg/L.

Take `CC1=C(/C=C/C(C)=C/CC/C(C)=C/CO)C(C)(C)CC(O)C1` (centres unmarked) [Compound 6, 11,12-dihydro-3-hydroxyretinol]: the anti-diatom activity entry in data set [3] and in data set [4] was “showed inhibition” each time.

In the case of `Cc1cc(O)c([C@]2(C)CC[C@@H]3C[C@@]32C)cc1Br` [Compound 8, laurinterol], in data set [1] (setting [5]), the pEC50 was 5.66. Also, the EC50 in data set [1] (setting [6]) is 0.65 mg/L. Further, the LC50 in data set [2] (Table 4, read-out: LC50) was found to be 20 µM; in data set [2] (setting [8]), 5.8 mg/L.

Regarding `C=C1[C@@H](C)CC[C@@]1(C)c1cc(Br)c(C)cc1O` [Compound 9, isolaurinterol], in data set [1] (setting [5]), the pEC50 was 5.92. Moreover, in data set [1] (setting [6]), the EC50 came out at 0.34 mg/L. The LC50 in data set [2] (setting [10]) and in data set [2] (setting [8]) was above 10 mg/L in each case.

Consider `Cc1ccc([C@]2(C)CC[C@@H]3C[C@@]32C)c(O)c1` [Compound 10, debromolaurinterol], for which the pEC50 in data set [1] (setting [5]) is 5.64. Moreover, the EC50 in data set [1] (setting [6]) was 0.5 mg/L. In addition, the LC50 in data set [2] (setting [10]) and in data set [2] (setting [8]) was above 10 mg/L in each case.

Regarding `Cc1ccc([C@]2(C)CC[C@@H](Br)C2(C)C)cc1` [Compound 11, α-bromocuparene], the EC50 in data set [1] (setting [9]) is above 10 mg/L. Further, in data set [1] (barnacle larvae, result in words), the antifouling activity entry was “inactive”. Also, the LC50 in data set [2] (setting [10]) is above 10 mg/L.

With `CC1(C)C(Br)=C[C@H]2O[C@@]2(C)[C@]12C[C@H](Br)[C@@](C)(Cl)C[C@@H]2O` [Compound 12, prepacifenol], the anti-diatom activity result in data set [3] and in data set [4] was “showed inhibition” throughout. The pEC50 in data set [1] (setting [5]) was 5.82. The concentration giving a half-maximal response (EC50) in data set [1] (setting [6]) came to 0.63 mg/L. The median lethal concentration (LC50) in data set [2] (setting [10]) and in data set [2] (setting [8]) was above 10 mg/L in each case.

Take `CC1(C)[C@]23C[C@H](Br)[C@@](C)(Cl)C[C@@H]2O[C@@]1(Br)C=C[C@@]3(C)O` [Compound 13, pacifenol]: in data set [1] (setting [5]), the pEC50 is 5.26. Further, the EC50 in data set [1] (setting [6]) was 2.36 mg/L. For the same molecule, the LC50 in data set [2] (setting [10]) and in data set [2] (setting [8]) was above 10 mg/L each time.

For `CC1=C[C@H](O)[C@@H](Br)C(C)(C)[C@]12CC[C@](C)(Cl)[C@@H](Br)C2` [Compound 14, 2,10-dibromo-3-chloro-9-hydroxy-α-chamigrene], the anti-diatom activity result in data set [3] and in data set [4] was “showed inhibition” each time. Also, the pEC50 in data set [1] (setting [5]) was 5.21. For the same molecule, in data set [1] (setting [6]), the EC50 turned out to be 2.51 mg/L. The LC50 in data set [2] (setting [10]) and in data set [2] (setting [8]) was above 10 mg/L in each case.

Turning to `O=S(=O)([O-])[O-].[Cu+2]` [CuSO4, reference compound], in data set [1] (barnacle larvae, Table 4), the LC50 is 1.4 µM. Also, in data set [1] (barnacle larvae, Table 4, read-out: EC50), the pEC50 is 6.14. For the same molecule, the “antifouling activity EC50” value in data set [1] (setting [7]) is 0.18 mg/L.

On to `Cn1c(Br)c(Br)c2ccc(Br)cc21` [N-methyl-2,3,6-tribromoindole], for which the EC50 in data set [1] (setting [6]) was 4.3 mg/L. Moreover, the toxicity to larvae entry in data set [1] is listed as “not toxic”.

(Values after publication PMC5618406, “New Marine Antifouling Compounds from the Red Alga Laurencia sp” (Marine Drugs, 2017).)
